Results published in the supplement of paper PMC5908809.

What was measured:
[1] = test system: normal NK cells expanded with K562-aAPC; experiment: drug sensitivity score (DSS) (DSS units); higher = more sensitive; extreme values may be limits of the assay; conditions: 72 h; IL-2 2.5 ng/mL
Experimental: (§1)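 Drug sensitivity and resistance testing on K562-aAPC-expanded normal NK cells: 5 concentrations (10-fold steps over a 10,000-fold range), 72 h at 37 °C, viability by CellTiter-Glo normalised to DMSO and benzethonium chloride controls; DSS from the fitted curve.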

[2] = test system: normal primary NK cells, pool 1 (3 donors), resting (IL-2 0 ng/mL); experiment: percent inhibition of viability; higher = more inhibition; conditions: 72 h
DERL-7 (IL-2 2.5 ng/mL) [3] = experiment: as above; conditions: 72 h
[4] = test system: normal primary NK cells, pool 3 (3 donors) (IL-2 2.5 ng/mL); experiment: as above; conditions: 72 h
[5] = test system: normal primary NK cells, pool 2 (3 donors) (IL-2 2.5 ng/mL); experiment: as above; conditions: 72 h
NKL (IL-2 2.5 ng/mL) [6] = experiment: as above; conditions: 72 h
KHYG-1 (IL-2 2.5 ng/mL) [7] = experiment: as above; conditions: 72 h
[8] = test system: normal primary NK cells, pool 1 (3 donors) (IL-2 2.5 ng/mL); experiment: as above; conditions: 72 h
IMC-1 (IL-2 20 ng/mL) [9] = experiment: as above; conditions: 72 h
YT (IL-2 2.5 ng/mL) [10] = experiment: as above; conditions: 72 h
SNK-6 (IL-2 2.5 ng/mL) [11] = experiment: as above; conditions: 72 h
NK-YS (IL-2 2.5 ng/mL) [12] = experiment: as above; conditions: 72 h
KAI3 (IL-2 2.5 ng/mL) [13] = experiment: as above; conditions: 72 h
NK-92 (IL-2 2.5 ng/mL) [14] = experiment: as above; conditions: 72 h
[15] = test system: normal primary NK cells, pool 1 (3 donors), resting (IL-2 0 ng/mL); experiment: drug sensitivity score (DSS) (DSS units); higher = more sensitive; extreme values may be limits of the assay; conditions: 72 h
DERL-7 (IL-2 2.5 ng/mL) [16] = experiment: as above; conditions: 72 h
[17] = test system: normal primary NK cells, pool 3 (3 donors) (IL-2 2.5 ng/mL); experiment: as above; conditions: 72 h
[18] = test system: normal primary NK cells, pool 2 (3 donors) (IL-2 2.5 ng/mL); experiment: as above; conditions: 72 h
NKL (IL-2 2.5 ng/mL) [19] = experiment: as above; conditions: 72 h
KHYG-1 (IL-2 2.5 ng/mL) [20] = experiment: as above; conditions: 72 h
[21] = test system: normal primary NK cells, pool 1 (3 donors) (IL-2 2.5 ng/mL); experiment: as above; conditions: 72 h
IMC-1 (IL-2 20 ng/mL) [22] = experiment: as above; conditions: 72 h
YT (IL-2 2.5 ng/mL) [23] = experiment: as above; conditions: 72 h
SNK-6 (IL-2 2.5 ng/mL) [24] = experiment: as above; conditions: 72 h
NK-YS (IL-2 2.5 ng/mL) [25] = experiment: as above; conditions: 72 h
KAI3 (IL-2 2.5 ng/mL) [26] = experiment: as above; conditions: 72 h
NK-92 (IL-2 2.5 ng/mL) [27] = experiment: as above; conditions: 72 h
[28] = test system: normal NK cells expanded with K562-aAPC; experiment: percent inhibition of viability; higher = more inhibition; conditions: 72 h, IL-2 2.5 ng/mL
Experimental: as §1

Nc1nc2[nH]cnc2c(=S)[nH]1 [Thioguanine] (max concentration tested 10000 nM)
Conditions | drug sensitivity score
DERL-7 (IL-2 2.5 ng/mL) [16] | 6.23
IMC-1 (IL-2 20 ng/mL) [22] | 10
KAI3 (IL-2 2.5 ng/mL) [26] | 6.83
KHYG-1 (IL-2 2.5 ng/mL) [20] | 17.9
NK-92 (IL-2 2.5 ng/mL) [27] | 12.4
NK-YS (IL-2 2.5 ng/mL) [25] | 17.2
NKL (IL-2 2.5 ng/mL) [19] | 9.15
SNK-6 (IL-2 2.5 ng/mL) [24] | 11.7
YT (IL-2 2.5 ng/mL) [23] | 16.8
[1] | 4.06
[15] | 4.42
[17] | 3.64
[18] | 4.48
[21] | 3.98

percent inhibition of viability [%]
Conditions | 1 nM | 10 nM | 100 nM | 1000 nM | 10000 nM
DERL-7 (IL-2 2.5 ng/mL) [3] | -5.49 | 1.22 | -5.6 | 8.62 | 87.2
IMC-1 (IL-2 20 ng/mL) [9] | -5.55 | -1.21 | -1.21 | 33.3 | 97.2
KAI3 (IL-2 2.5 ng/mL) [13] | -7.74 | -2.97 | -0.62 | 15.1 | 78.8
KHYG-1 (IL-2 2.5 ng/mL) [7] | -13.1 | -8.14 | -0.41 | 99.5 | 106
NK-92 (IL-2 2.5 ng/mL) [14] | -10.2 | -5.6 | 17.5 | 52.7 | 98.4
NK-YS (IL-2 2.5 ng/mL) [12] | -7.28 | -5.53 | 13.5 | 84.7 | 95.8
NKL (IL-2 2.5 ng/mL) [6] | -14 | -21.1 | 1.79 | 26.9 | 93.4
SNK-6 (IL-2 2.5 ng/mL) [11] | -10.4 | -12.3 | -12.4 | 52.4 | 96.7
YT (IL-2 2.5 ng/mL) [10] | -6.35 | -2.99 | 5.94 | 87.9 | 105
[2] | 1.38 | 16.6 | 9.25 | 15.6 | 37.5
[4] | -3.74 | -0.43 | 9.27 | 10.8 | 44
[5] | -0.91 | -2.84 | 9.06 | 9.05 | 55
[8] | 2.84 | 12.9 | 10.3 | 6.9 | 52.7
[28] | -4.14 | -5.02 | -5.79 | 6.11 | 56.7
